Tests used:
human NTPDase1 = molecular target: T1, human NTPDase1 (Homo sapiens, UniProt P49961); experiment: Malachite green assay, human NTPDase1; format: biochemical; conditions: 2 μM compound; 50 µM ATP; COS-7 membrane preparation; read-out: % inhibition at 2 μM concentration, NTPDase1
T1 construct: expressed in transfected cells; host or cells: COS-7 cells (membrane preparation)
T1 sequence (P49961 1-510): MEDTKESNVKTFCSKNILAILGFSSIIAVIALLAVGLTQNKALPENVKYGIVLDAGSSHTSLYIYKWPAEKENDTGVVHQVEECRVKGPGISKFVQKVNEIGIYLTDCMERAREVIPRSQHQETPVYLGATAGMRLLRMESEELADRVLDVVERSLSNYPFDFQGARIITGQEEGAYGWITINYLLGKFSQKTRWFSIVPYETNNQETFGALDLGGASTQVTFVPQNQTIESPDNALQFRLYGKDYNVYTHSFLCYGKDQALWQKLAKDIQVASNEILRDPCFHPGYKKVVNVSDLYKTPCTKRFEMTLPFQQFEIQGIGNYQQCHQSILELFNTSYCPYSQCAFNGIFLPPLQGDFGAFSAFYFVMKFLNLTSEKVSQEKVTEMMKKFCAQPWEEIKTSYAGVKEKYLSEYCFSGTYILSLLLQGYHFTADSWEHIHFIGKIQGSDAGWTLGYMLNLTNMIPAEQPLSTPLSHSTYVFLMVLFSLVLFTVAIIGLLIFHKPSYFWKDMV
Procedure, shortened: (§1)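 COS-7 membranes expressing each NTPDase were preincubated with compound for 5 min at 37 °C, pH 7.4 HEPES buffer with 2 mM CaCl2/1 mM MgCl2. ATP was 50 µM for NTPDase1 and 100 µM for -2, -3, -8; reaction ran 15 min at 37 °C. Released phosphate read by malachite green at 600 nm; screen at 2 µM, IC50 over 0.03–30 µM in 2% DMSO.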

human NTPDase2 = molecular target: T2, human NTPDase2 (Homo sapiens, UniProt Q9Y5L3); experiment: Malachite green assay, human NTPDase2; format: biochemical; conditions: 2 μM compound; 100 µM ATP; COS-7 membrane preparation; read-out: % inhibition at 2 μM concentration, NTPDase2
T2 construct: expressed in transfected cells; host or cells: COS-7 cells (membrane preparation)
T2 sequence (Q9Y5L3 1-495): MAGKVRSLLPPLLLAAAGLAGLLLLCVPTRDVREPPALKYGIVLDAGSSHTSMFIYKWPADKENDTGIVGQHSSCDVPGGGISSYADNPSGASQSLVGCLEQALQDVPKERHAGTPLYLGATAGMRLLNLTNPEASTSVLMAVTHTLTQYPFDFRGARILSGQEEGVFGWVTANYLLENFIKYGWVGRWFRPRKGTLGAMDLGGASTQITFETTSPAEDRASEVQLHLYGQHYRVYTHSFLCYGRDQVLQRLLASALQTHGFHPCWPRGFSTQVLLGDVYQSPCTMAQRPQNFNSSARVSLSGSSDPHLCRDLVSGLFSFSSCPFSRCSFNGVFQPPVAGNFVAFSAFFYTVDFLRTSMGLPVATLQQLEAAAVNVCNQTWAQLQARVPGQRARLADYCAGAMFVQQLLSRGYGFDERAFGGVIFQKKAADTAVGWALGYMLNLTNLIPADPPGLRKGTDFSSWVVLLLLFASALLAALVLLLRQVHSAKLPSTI
Procedure, shortened: as §1

rat NTPDase2 = conditions: rat enzyme; ref Baqi et al., 2009b; cited from earlier work
rat NTPDase3 = conditions: rat enzyme; ref Baqi et al., 2009b; cited from earlier work

inhibition at 2 µM (human NTPDase1): -19% | inhibition at 2 µM (human NTPDase2): 31%
Compound: Nc1c(S(=O)(=O)O)cc(Nc2cccc3ccccc23)c2c1C(=O)c1ccccc1C2=O [Compound 15]
IC50 (rat NTPDase2): > 100 µM | IC50 (rat NTPDase3): 1.5 µM

— publication PMC7481482, “Development of Anthraquinone Derivatives as Ectonucleoside Triphosphate Diphosphohydrolase (NTPDase) Inhibitors With Selectivity for NTPDase2 and NTPDase3” (Frontiers in Pharmacology, 2020)
